By IC50 is commonly meant the concentration that gives 50% inhibition. Broadly, the MIC is the lowest concentration that inhibits growth of the organism.

The format of data set [1] is cell-based, African green monkey. As to conditions: African green monkey.
The test system of data set [2] is Mycobacterium tuberculosis (H37Rv and ERDMAN). The data set can be described thus: MABA, result stated for both strains without assignment. Format: cell-based.
In data set [3] the test system is M. tuberculosis H37Rv (ATCC 27294). Description: Microplate Alamar Blue Assay. As to conditions: for MIC, H37Rv: MABA, concentration giving ≥ 90% inhibition, 7 days, 37 °C, triplicate; for SI (selectivity index = IC50/MIC), H37Rv: Vero IC50 / MIC H37Rv, limited by 120 μg/ml cytotoxicity cutoff. Format: cell-based, Mycobacterium tuberculosis.
Data set [4] has as its system M. tuberculosis Erdman (ATCC 35801). Description: Microplate Alamar Blue Assay. It counts as cell-based, Mycobacterium tuberculosis. As to conditions: for MIC, Erdman: MABA, concentration giving ≥ 90% inhibition, 7 days, 37 °C, triplicate; for SI (selectivity index = IC50/MIC), Erdman: Vero IC50 / MIC Erdman, limited by 120 μg/ml cytotoxicity cutoff.
Another data set concerns Vero cells. It counts as cell-based, African green monkey. As to conditions: Vero cells, 72 hours; cutoff 120 μg/ml.

Values after ≈ are worked out from the molar mass of the structure shown.

For the molecule `CCCCCCC/C=C\C(O)C#CC#CC(=O)CCOC` (stereo not drawn) [Compound 5, 8-hydroxy-1-methoxy-(Z)-9-heptadecene-4,6-diyn-3-one], the IC50 at 72 h in data set [1] is more than 120 µg/mL. The MIC in data set [2] is more than 60 µg/mL. Besides, the “MIC, H37Rv” value in data set [3] is on record as “above 60 μg/mL”. Besides, in data set [4], the “MIC, Erdman” value is given as “above 60 μg/mL”.

In data set [1], `CO[C@H]1/C=C/O[C@@]2(C)Oc3c(C)c(O)c4c(O)c(c(/C=N/N5CCN(C)CC5)c(O)c4c3C2=O)NC(=O)/C(C)=C\C=C\[C@H](C)[C@H](O)[C@@H](C)[C@@H](O)[C@@H](C)[C@H](OC(C)=O)[C@@H]1C` [RMP, Rifampin, reference compound] gave a concentration for half-maximal inhibition (IC50) at 72 h of 112 µg/mL (≈ 136 µM). Moreover, the “SI (selectivity index = IC50/MIC), H37Rv” value in data set [3] worked out at 1860. The “SI (selectivity index = IC50/MIC), Erdman” value in data set [4] was found to be 2232.

Consider `C=CC(O)C#CC#CC(O)C1OC1CCCCCCC` (stereo not drawn) [Compound 4, heptadeca-1-ene-9,10-epoxy-4,6-diyne-3,8-diol], for which the “Cytotoxicity IC50” value in the data set with Vero cells was more than 120 µg/mL.

With `C=C[C@@H](O)C#CC#C[C@@H](O)/C=C\CCCCCCC` [Compound 1, falcarindiol], in data set [1], the concentration for half-maximal inhibition (IC50) at 72 h was more than 120 µg/mL. The molecule also registered a minimal inhibitory concentration (MIC) in data set [2] of 1.4 to 26.7 µg/mL (≈ 5.38 to 103 µM). Besides, in data set [3], the “MIC, H37Rv” value is 26.7 µg/mL (≈ 103 µM) and the “SI (selectivity index = IC50/MIC), H37Rv” value is on record as more than 4. In addition, in data set [4], the “MIC, Erdman” value came to 6.0 µg/mL (≈ 23 µM) and the “SI (selectivity index = IC50/MIC), Erdman” value is more than 19.

Take `C=CC(O)C#CC#CC(O)/C=C\CCCCCCCCOC(C)=O` (stereo not drawn) [Compound 2, 9Z,17-octadecadiene-12,14-diyne-1,11,16-triol,1-acetate]: in the data set on Vero cells, the “Cytotoxicity IC50” value is more than 120 µg/mL. For the same molecule, in data set [3], the “MIC, H37Rv” value turned out to be 25.3 µg/mL (≈ 76.1 µM) and the “SI (selectivity index = IC50/MIC), H37Rv” value is reported as more than 4. Besides, in data set [4], the “MIC, Erdman” value worked out at 1.4 µg/mL (≈ 4.21 µM) and the “SI (selectivity index = IC50/MIC), Erdman” value was more than 100.

Turning to `CCCCCCC/C=C\[C@H](O)C#CC#C[C@@H](O)CC` [Compound 3, oplopandiol], the 50% inhibitory concentration (IC50) at 72 h in data set [1] is more than 120 µg/mL. Further, in data set [3], the “MIC, H37Rv” value was determined as 50.2 µg/mL (≈ 191 µM) and the “SI (selectivity index = IC50/MIC), H37Rv” value is given as more than 2. In data set [4], the “MIC, Erdman” value was 49.5 µg/mL (≈ 189 µM) and the “SI (selectivity index = IC50/MIC), Erdman” value is given as more than 2.

The values above are taken from article PMC2504689 (Phytotherapy research : PTR, 2008).
